Assay results as given in patent US10954222B2, “Benzothiophene compound, alternative autophagy-inducing agent and anticancer agent including the compound as active ingredient, and method for screening for compound having anticancer activity” (National University Corporation Tokyo Medical and Dental …, priority 2012, dated 2021).
Read-outs that look alike come from different tables or passages of the source.

Assays:
[1] = Cell-killing effect (necrosis) of analogous compounds; type: cell-based; conditions: even when added at a low concentration
Lamp1-GFP/ATG5-KO MEFs = assay: Evaluation of activity to induce alternative autophagy (fluorescent bright spots due to aggregation of Lamp1-GFP); type: cell-based, mouse; conditions: for ability to induce alternative autophagy, comparative statement: as shown in Examples; for aggregation of Lamp1-GFP, visually determined: concentrations of 10 μM or higher (10 to 50 μM), 5 hours; for alternative autophagy-inducing activity (FIG. 16): Example 9, same method as Example 1
Procedure: First, by using a retrovirus, a gene for expression of a Lamp1-GFP fusion protein (also referred to as “Lamp1-GFP”) was introduced into ATG5-deficient mouse embryonic fibroblasts (also referred to as “ATG5-KO MEFs”). Then, a cell with high expression of Lamp1-GFP was cloned and prepared as Lamp1-GFP/ATG5-KO MEFs.
The ATG5-KO MEFs were prepared by introducing a gene for expression of SV40T antigen into MEFs established from an ATG5-deficient C57/B6J mouse at a fetal age of 14.5 days by an electroporation method using an Nucleofector system (manufactured by amaxa) for immortalization. In addition, the retrovirus was prepared by introducing an MSCV-Lamp1-GFP (zeocin resistant) vector into plat E cells, which were retrovirus packaging cells.
To the Lamp1-GFP/ATG5-KO MEFs seeded at 1×10^4/96 wells on the preceding day, each of the test compounds was added at a final concentration of 50 μM, and the Lamp1-GFP/ATG5-KO MEFs were cultured at 37° C. under 10% CO2 for 5 hours.
Then, for observation, Hoechst 33342 (manufactured by invitrogen) was added at a final concentration of 1 ng/ml to each culture liquid, followed by incubation for 5 minutes. Then, the culture liquid was replaced with 100 μl of HBSS. Subsequently, five visual fields per well were photographed at random with IN CELL ANALYZER 1000 (manufactured by GE Healthcare).
Then, the thus obtained novel benzothiophene compounds (TMD-459 and TMD-460) were evaluated for the ability to induce alternative autophagy by the same method as that described in Example 1. Note that, in Example 10, each of the compounds was added to culture liquids at final concentrations of 10, 20, 30, 40, and 50 μM. In addition, compound #9 was also added as a reference example to culture liquids at the above-described concentrations. Then, 5 hours after the addition of each of these compounds, five visual fields per each well were photographed at random with IN CELL ANALYZER 1000, and the presence or absence of fluorescent bright spots due to the aggregation of Lamp1-GFP was visually determined.

[2] = tested on: MEFs immortalized with SV40T antigen; assay: cells; conditions: Mus musculus, 24 h, read-out: induced cell death of the MEFs immortalized with SV40T antigen
[3] = tested on: MEFs immortalized with SV40T antigen; conditions: 24 hours, CTB
[4] = tested on: tumor cell line 53T implanted in wild-type C57/B6J mice; assay: In vivo anticancer activity, tumor volume in cancer-bearing mice implanted with 53T; parameters: species or system mouse; conditions: for anticancer activity (FIG. 17, tumor volumes in cancer-bearing mice): Example 9
Procedure: A tumor cell line (also referred to as “53T”) established from a tumor developed spontaneously in a p53 deficient C57/B6J mouse was implanted at 4 sites in the ventral skin of each of wild-type C57/B6J mice at 3×10^5 cells per site. From the following day, the compounds were administered to the mice every other day five times in total. The concentration of each compound was 0.4 μmol/(50 μl DMSO+100 μl PBS)/mouse/administration. In addition, a negative control group to which only the same amount of DMSO was administered was prepared. Then, 21 days (3 weeks) after the implantation, the tumor diameters of the mice were measured, and the tumor volumes were calculated, and compared with that of the control group.
The 53T was implanted at 4 sites in the ventral skin of each of wild-type C57/B6J mice at 3×10^5 cells per site. From the following day, 0 (DMSO alone), 5, 10, or 20 μM of each of compounds #09 and #13 was administered to six mice every other day five times in total. Then, 21 days (3 weeks) after the implantation, the tumor diameters of the mice were measured, and the tumor volumes were calculated. FIGS. 9 and 11 show the obtained results. Note that, in FIGS. 9 and 11, each point indicates the average volume of the tumors at the four sites in a mouse.
In addition, in the same manner as described above, the 53T was implanted in mice, and, from the following day, each of compound #09 at a concentration of 10 μM and compound #13 at a concentration of 5 μM was administered to four cancer-bearing mice every other day five times in total. Then, 21 days (3 weeks) after the implantation, the tumor diameters of the mice were measured, and the tumor volumes were calculated. In addition, a negative control to which DMSO was administered was also prepared, and the tumor volume was calculated in the same manner. In addition, these experiments were conducted three times independently of each other. FIGS. 10 and 12 show the obtained results. Note that in FIGS. 10 and 12, each point indicates the average volume of the tumors at the four sites in a mouse.

[5] = tested on: 53T implanted in wild-type C57/B6J mice; assay: Survival rate of cancer-bearing mice; type: in vivo, mouse; conditions: 10 μM every other day 5 times; compared with etoposide at 10 μM, FIGS. 13 to 15
[6] = tested on: p53-deficient cancer cells (53T); assay: Alternative autophagy-inducing activity in tumor cell line (Lamp2 aggregation, fluorescence and electron microscope); type: cell-based, mouse; conditions: 20 μM, six hours, FIGS. 3 to 6
Procedure: In the same manner as in the above-described <Evaluation of Alternative Autophagy-Inducing Activity> using the Lamp1-GFP/ATG5-KO MEFs, each of the compounds #09 and #13 was added at a final concentration of 20 μM to a culture liquid of the tumor cell line (also referred to as “53T”) established from the tumor developed spontaneously in the p53 deficient C57/B6J mouse. […] Note that, in this evaluation, Lamp2 was used instead of Lamp1. FIGS. 3 to 6 show the obtained results.

[7] = tested on: fibroblasts (cancer cells) immortalized with SV40; assay: Activity to induce cell death specific to cancer cells: cancer cells (CTB survival rate); type: cell-based; conditions: 20 μM, FIGS. 7 and 8
[8] = tested on: primary cultured fibroblasts (normal cells); assay: Activity to induce cell death specific to cancer cells: normal cells (CTB survival rate); type: cell-based; conditions: 20 μM, FIGS. 7 and 8
Procedure: CTB measurement values were obtained in the same manner as in the above-described <Evaluation of In Vitro Anticancer Activity> by adding each of compounds #09 and #13 at a final concentration of 20 μM to culture liquids of primary cultured fibroblasts (normal cells) and fibroblasts (cancer cells) immortalized with SV40. On the basis of the obtained CTB measurement values, the cell survival rate was calculated over time. Note that the cell survival rate was defined as 1-cell death induction rate. FIGS. 7 and 8 show the obtained results.

[9] = tested on: mouse tumor cell line 53T; assay: Evaluation of in vitro anticancer activity (Cell titer blue, cell death induction rate); type: cell-based; parameters: key: (CTB of negative control − CTB treated)/CTB of negative control; conditions: 24 hours, CTB
Procedure: First, the mouse tumor cell line 53T was seeded at 2×10^4/well on 96 well plates. Then, on the following day, each of compounds #09 and #13 dissolved in DMSO was added at a final concentration of 1, 5, 10, 20, or 50 μM. In addition, a negative control to which only DMSO was added was prepared. Subsequently, the cells were cultured at 37° C. under 10% CO2 for 24 hours. Then, by using Cell titer blue (CTB) (manufactured by Promega) according to the attached protocol, the amount of the fluorescence of each well of the cells 10 minutes after the addition of the CTB reagent was measured as a CTB measurement value of the cells brought into contact with compound #09 or #13. On the basis of such measurement values, the cell death induction rate of each of compounds #09 and #13 was calculated according to the following formula. Cell death induction rate=(CTB measurement value of negative control−CTB measurement value of cells to which compound was added)/CTB measurement value of negative control

CCOC(=O)c1c(NC(C)=O)sc2c(OCC(O)CNC3CCCCC3)c(Br)ccc12 (stereo not drawn) [compound 36]
cell-killing effect (necrosis) [1]: strong cell-killing effect (necrosis)

CCOC(=O)c1c(NC(C)=O)sc2c(OCCN(CC)CC)c(-c3ccc(O)cc3)ccc12 [formula (1-15)]
ability to induce alternative autophagy, comparative statement (Lamp1-GFP/ATG5-KO MEFs): ability to induce alternative autophagy is higher

CCOC(=O)c1c(N)sc2c(OCCN(CC)CC)c(Br)ccc12 [TMD-460, Ethyl 2-Amino-7-[2-(N,N-diethylamino)ethyloxy]-6-bromobenzo[b]thiophene-3-carboxylate]
mortality at 20 µM [2]: ≥ 80% | Cell death induction rate ([3]; 10 μM): 0.7701 | Cell death induction rate ([3]; 20 μM): 0.875 | Cell death induction rate ([3]; 30 μM): 0.8885 | Cell death induction rate ([3]; 40 μM): 0.8902 | Cell death induction rate ([3]; 50 μM): 0.8919 | aggregation of Lamp1-GFP, visually determined (Lamp1-GFP/ATG5-KO MEFs): aggregation of the Lamp1-GFP was observed in all the cells

CCOC(=O)c1c(NC(C)=O)sc2c(OC(C)=O)cccc12 [compound 37]
anticancer activity (FIG. 17, tumor volumes in cancer-bearing mice) [4]: did not have anticancer activity | alternative autophagy-inducing activity (FIG. 16) (Lamp1-GFP/ATG5-KO MEFs): no alternative autophagy-inducing activity

CCOC(=O)c1c(NC(C)=O)sc2c(Cl)c(/C=N/c3ccccc3)cc(Br)c12 [compound 44]
anticancer activity (FIG. 17, tumor volumes in cancer-bearing mice) [4]: did not have anticancer activity | alternative autophagy-inducing activity (FIG. 16) (Lamp1-GFP/ATG5-KO MEFs): no alternative autophagy-inducing activity

CCOC(=O)c1c(NC(C)=O)sc2c(OCCN(CC)CC)c(-c3cccs3)ccc12 [formula (1-17)]
ability to induce alternative autophagy, comparative statement (Lamp1-GFP/ATG5-KO MEFs): ability to induce alternative autophagy is higher

CCCC(=O)c1c(NC(C)=O)sc2c(Cl)c(/C=N\CCCCO)ccc12 [compound 46]
anticancer activity (FIG. 17, tumor volumes in cancer-bearing mice) [4]: did not have anticancer activity | alternative autophagy-inducing activity (FIG. 16) (Lamp1-GFP/ATG5-KO MEFs): no alternative autophagy-inducing activity

CCOC(=O)c1c(NC(C)=O)sc2c(OCCN(CC)CC)c(-c3ccccc3)ccc12 [TMD-459, Ethyl 2-Acetylamino-7-[2-(N,N-diethylamino)ethyloxy]-6-phenylbenzo[b]thiophene-3-carboxylate]
aggregation of Lamp1-GFP, visually determined (Lamp1-GFP/ATG5-KO MEFs): aggregation of the Lamp1-GFP was observed in all the cells

C=CC/N=C/c1cc(C)c2c(C(=O)OCC)c(NC(C)=O)sc2c1Cl [compound 47]
cell-killing effect (necrosis) [1]: strong cell-killing effect (necrosis)

COc1c(Br)ccc2c(C(=O)O)c(NC(C)=O)sc12 [compound 40]
anticancer activity (FIG. 17, tumor volumes in cancer-bearing mice) [4]: did not have anticancer activity | alternative autophagy-inducing activity (FIG. 16) (Lamp1-GFP/ATG5-KO MEFs): no alternative autophagy-inducing activity

CCOC(=O)c1c(NC(C)=O)sc2c(NC(C)=O)cccc12 [compound 38]
anticancer activity (FIG. 17, tumor volumes in cancer-bearing mice) [4]: did not have anticancer activity | alternative autophagy-inducing activity (FIG. 16) (Lamp1-GFP/ATG5-KO MEFs): no alternative autophagy-inducing activity

CCOC(=O)c1c(NC(C)=O)sc2c(OCCN(CC)CC)c(-c3ccc(OC)cc3)ccc12 [formula (1-10)]
ability to induce alternative autophagy, comparative statement (Lamp1-GFP/ATG5-KO MEFs): ability to induce alternative autophagy is higher

CCOC(=O)c1c(NC(C)=O)sc2c(OCCN(CC)CC)c(-c3ccsc3)ccc12 [formula (1-18)]
ability to induce alternative autophagy, comparative statement (Lamp1-GFP/ATG5-KO MEFs): ability to induce alternative autophagy is higher

N=C(Nc1ccc2c(c1)OCCO2)Nc1nc(-c2cccs2)cc(C(F)(F)F)n1 [compound 13]
improvement effect on the survival rate of the cancer-bearing mice [5]: higher improvement effect on the survival rate of the cancer-bearing mice than etoposide | in vivo anticancer activity (tumor volume vs control group, FIG. 2) ([4]; 0.4 μmol/mouse/administration, every other day five times, 21 days after implantation): selected as compounds having in vivo anticancer activity | in vivo anticancer activity (tumor volume, FIGS. 9 to 12) ([4]; 5, 10, or 20 μM every other day five times, 21 days after implantation): exhibited in vivo anticancer activity | in vivo anticancer activity at low concentration (FIG. 11) ([4]; administered at 5 μM): exhibited remarkable anticancer activity | aggregation of Lamp2 and occurrence of autophagy [6]: aggregation of the lysosomal protein Lamp2 and occurrence of autophagy were observed | cell death-inducing activity on cancer cells (cell survival rate over time) [7]: exhibited remarkable cell death-inducing activity on the cancer cells | cell death of normal cells (cell survival rate over time) [8]: hardly induced cell death of the normal cells | Cell death induction rate ([9]; 1 μM): 0 | Cell death induction rate ([9]; 5 μM): 0.1776 | Cell death induction rate ([9]; 10 μM): 0.4559 | Cell death induction rate ([9]; 20 μM): 0.768 | Cell death induction rate ([9]; 50 μM): 0.9426

CCOC(=O)c1c(NC(=O)c2ccccc2)sc2c(O)c(Br)cc(Br)c12 [compound 42]
anticancer activity (FIG. 17, tumor volumes in cancer-bearing mice) [4]: did not have anticancer activity | alternative autophagy-inducing activity (FIG. 16) (Lamp1-GFP/ATG5-KO MEFs): no alternative autophagy-inducing activity

CCOC(=O)c1c(NC(C)=O)sc2c(OCCN(CC)CC)c(-c3ccccc3SC)ccc12 [formula (1-14)]
ability to induce alternative autophagy, comparative statement (Lamp1-GFP/ATG5-KO MEFs): ability to induce alternative autophagy is higher
